The record followed here is patent US10287276B2, “Heteroaryl-1,2,4-triazole and heteroaryl-tetrazole compounds for controlling ectoparasites” (Elanco Tiergesundheit AG, priority 2016, dated 2019).

In assay [1] the test system is Ctenocephalides Felis (Cat Flea). Description: Activity in vitro against Ctenocephalides felis (cat flea), Assay A. To be noted: Ctenocephalides felis; at 100 ppm; adult fleas fed on treated blood for 24 h; dead fleas counted; read-out: efficacy (EC80). How it is done:
Activity In Vitro Against Ctenocephalides Felis (Cat Flea)—Assay A
A mixed adult population of fleas is placed in a suitably formatted 96-well plate allowing fleas to access and feed on treated blood via an artificial feeding system. Fleas are fed on treated blood for 24 h, after which the compound effect is recorded. Insecticidal activity is determined on the basis of the number of dead fleas recovered from the feeding system.

Assay [2] concerns Lucilla Cuprina (Australian sheep blowfly). Put plainly: Activity in vitro against Lucilla cuprina (Australian sheep blowfly), Assay A. Conditions: eggs on agar-based medium; for pest or weed control at 32 ppm: Lucilia cuprina, 96 h, 4 days at 28° C. and 60% relative humidity, read-out: efficacy (EC80).
In assay [3] the test system is Rhipicephalus sanguineus (Dog Tick). Put plainly: Activity in vitro against Rhipicephalus sanguineus (dog tick), Assay A, contact test. To be noted: adult ticks; for pest or weed control at 100 ppm: Rhipicephalus sanguineus, 168 h, 28° C. and 80% relative humidity for 7 days, read-out: efficacy (EC80).
For assay [4], the system named is Engorged Female Rhipicephalus microplus (Cattle Tick). Put plainly: Activity in vitro against engorged female Rhipicephalus microplus (cattle tick), contact test. To be noted: 672 h, organophosphorous-resistant Ultimo strain, evaluation 28 days later on mortality, oviposition and hatched larvae, read-out: efficacy (EC80). The method, boiled down: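 Contact test: wells pre-coated with compound serial dilutions, 10 engorged females of organophosphate-resistant Ultimo strain per well, triplicates. Incubated 28 °C, 80% RH; mortality, oviposition and larval hatch assessed after 28 days.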

In assay [5] the test system is Rhipicephalus sanguineus Nymphs. Description: Activity in vivo against Rhipicephalus sanguineus nymphs on Mongolian gerbils. To be noted: topical, 0 h, pour on application day 0, tick number reduction vs placebo, Abbott's formula, read-out: efficacy (EC90). How it is done:
On day 0, gerbils are treated with the test compound at a given dose by pour on application. On day +1 (+2), the animals are infested with nymphs of R. sanguineus. Ticks are left on the animals until full repletion. Seven days after infestation nymphs dropped off fully engorged are collected and counted. They are kept until molting to also evaluate growth regulating activity of the test compound. Efficacy in killing (and growth regulating) is expressed as a tick number (and molted tick number) reduction in comparison with a placebo treated group, using the Abbott's formula:
n=number of live ticks. T=treated group. Co=control/placebo group.

Another assay has as its system Lice (Polyplax serrata). Description: Activity in vivo against lice (Polyplax serrata) in mice (topical). Conditions: pour-on application, live lice on day +4 and +14, Henderson & Tilton formula, read-out: efficacy (EC90). Put shortly: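 Naturally infested mice get formulated compound once by pour-on on day 0. Live lice are counted under a binocular on days +4 and +14. Efficacy is calculated by Henderson & Tilton from pre- vs post-treatment counts on the same mouse, corrected against placebo (empty formulation) mice.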

Assay [6] relates to Ctenocephalides Felis (Cat Flea). Description: Activity in vitro against Ctenocephalides felis (cat flea), Assay B. Conditions: Ctenocephalides felis; at 10 ppm in bovine blood; % mortality at 48 hours post infestation; read-out: efficacy (EC50). How it is done: Activity In Vitro Against Ctenocephalides Felis (Cat Flea)—Assay B
Test compounds are added to organic bovine blood contained in an artificial feeding container. Compounds with known insecticidal activity are included to serve as positive controls. Newly emerged unfed adult fleas from a laboratory colony are aspirated into each vial. The test cages are maintained using the artificial feeding apparatus to allow ingestion of compound. Fleas are evaluated for % mortality at 48 hours post infestation. Fleas showing normal movement and/or jumping ability are considered viable and those showing no movement are scored as dead.

Assay [7] relates to Lucilla Cuprina (Australian Sheep Blowfly). Description: Activity in vitro against Lucilla cuprina (Australian sheep blowfly), Assay B. Set-up: species or system L. cuprina. To be noted: Lucilia cuprina; at 10 ppm; larvae, compound in bovine serum, percent mortality at 24 hours; read-out: efficacy (EC50). How it is done: Activity In Vitro Against Lucilla Cuprina (Australian Sheep Blowfly)—Assay B
Compound formulated in bovine serum is dispensed into scintillation. A dental cotton roll is added to each vial to absorb the compound solution. L. cuprina larvae are added to each treatment vial. The vials are capped and held for 24 hours in an environmental chamber at appropriate temperature, humidity and light/dark cycles. Evaluations are only made at 24 hours because dead larvae after 24 hours may be cannibalized by the remaining live ones. Vials are examined for percent mortality.

For assay [8], the system named is Rhipicephalus sanguineus (Dog Tick). Description: Activity in vitro against Rhipicephalus sanguineus (dog tick), Assay B, coated glass vials. Conditions: Rhipicephalus sanguineus; at 20 ppm; contact with coated vials, assessment at 48 hours; read-out: efficacy (EC50). How it is done: Activity In Vitro Against Rhipicephalus sanguineus (Dog Tick)—Assay B
A solution of the test compounds is used to coat the inner wall of glass vials containing a filter paper on the bottom of each vial. A second filter paper is also coated and placed in the cap of the vial. Vials and caps are allowed to dry overnight. Each treated vial is infested with ticks. Contact of the ticks with residues is induced by holding the vials in a controlled environment and assessment is performed at 48 hours after application in comparison with untreated glass vials and solvent-treated glass vials.

For `CC(c1ncnn1-c1ncccn1)N(CC1CC1)C(=O)c1cc(Cl)cc(C(F)(F)F)c1` (stereo not shown) [Example 40, 3-Chloro-N-(cyclopropylmethyl)-N-[1-(2-pyrimidin-2-yl-1,2,4-triazol-3-yl)ethyl]-5-(trifluoromethyl)benzamide], the pest or weed control at 100 ppm in [1] and in assay [3] was above 80% throughout. Also, the pest or weed control at 32 ppm in assay [2] is above 80%. Besides, in [4], the pest or weed control at 200 ppm is above 80%. Moreover, the inhibition in vivo at 32 mg/kg (in assay [5]; in the assay on Lice (Polyplax serrata)) was above 90% each time.

Regarding `C#CCN(C(=O)c1cc(Cl)cc(C(F)(F)F)c1)C(C)c1ncnn1-c1ncccn1` (stereo not shown) [Example 41, 3-Chloro-N-prop-2-ynyl-N-[1-(2-pyrimidin-2-yl-1,2,4-triazol-3-yl)ethyl]-5-(trifluoromethyl)benzamide], the pest or weed control at 100 ppm in assay [1] and in assay [3] was above 80% each time. Moreover, in assay [2], the pest or weed control at 32 ppm was above 80%. The EC50 came out at 1 ppm in [2] (4 days at 28° C.) and 32 ppm in assay [3] (7 days). The pest or weed control at 200 ppm in assay [4] was above 80%. Further, the inhibition in vivo at 32 mg/kg (in assay [5]; in the assay on Lice (Polyplax serrata)) was above 90% each time.

Regarding `CC(c1ncnn1-c1ncccn1)N(CC1CC1)C(=O)c1cc(C(F)(F)F)cc(C(F)(F)F)c1` (stereo not shown) [Example 48, N-(Cyclopropylmethyl)-N-[1-(2-pyrimidin-2-yl-1,2,4-triazol-3-yl)ethyl]-3,5-bis(trifluoromethyl)benzamide], the pest or weed control at 100 ppm in assay [1] and in assay [3] was above 80% in each case. The pest or weed control at 32 ppm in assay [2] was above 80%. In addition, the pest or weed control at 200 ppm in assay [4] is above 80%. For the same compound, the inhibition in vivo at 32 mg/kg (in [5]; in the assay with Lice (Polyplax serrata)) was above 90% each time.

As for `CC(c1ncnn1-c1ncccn1)N(CC1CC1)C(=O)c1cc(C#N)cc(C(F)(F)F)c1` (stereo not shown) [Example 50, 3-Cyano-N-(cyclopropylmethyl)-N-[1-(2-pyrimidin-2-yl-1,2,4-triazol-3-yl)ethyl]-5-(trifluoromethyl)benzamide], the pest or weed control at 10 ppm in [6] and in assay [7] was above 50% each time. In addition, the pest or weed control at 20 ppm in [8] is above 50%.

On to `CC(c1ncnn1-c1ncccn1)N(CC1CC1)C(=O)c1cc(C(F)(F)F)nc(C(F)(F)F)c1` (stereo not shown) [Example 51, N-(Cyclopropylmethyl)-N-[1-(2-pyrimidin-2-yl-1,2,4-triazol-3-yl)ethyl]-2,6-bis(trifluoromethyl)pyridine-4-carboxamide], for which the pest or weed control at 10 ppm in [6] and in [7] was above 50% in each case.

In the case of `CCN(C(=O)c1cc(C(F)(F)F)cc(C(F)(F)F)c1)C(C)c1ncnn1-c1ncccn1` (stereo not shown) [Example 53, N-Ethyl-N-[1-(2-pyrimidin-2-yl-1,2,4-triazol-3-yl)ethyl]-3,5-bis(trifluoromethyl)benzamide], the pest or weed control at 10 ppm in assay [6] and in assay [7] was above 50% each time.

In the case of `C#CCN(C(=O)c1cccc(C#N)c1)C(C)c1ncnn1-c1ncccn1` (stereo not shown) [Example 54, 3-Cyano-N-prop-2-ynyl-N-[1-(2-pyrimidin-2-yl-1,2,4-triazol-3-yl)ethyl]benzamide], in assay [6], the pest or weed control at 10 ppm was above 50%. For the same compound, the pest or weed control at 20 ppm in assay [8] is above 50%.

Consider `CC(c1ncnn1-c1ncccn1)N(C)C(=O)c1cccc(C#N)c1` (stereo not shown) [Example 55, 3-Cyano-N-methyl-N-[1-(2-pyrimidin-2-yl-1,2,4-triazol-3-yl)ethyl]benzamide], for which the pest or weed control at 10 ppm in assay [6] is above 50%. Moreover, the pest or weed control at 20 ppm in assay [8] is above 50%.

As to `CC(c1ncnn1-c1ncccn1)N(CC#N)C(=O)c1cc(C(F)(F)F)cc(C(F)(F)F)c1` (stereo not shown) [Example 56, N-(Cyanomethyl)-N-[1-(2-pyrimidin-2-yl-1,2,4-triazol-3-yl)ethyl]-3,5-bis(trifluoromethyl)benzamide], the pest or weed control at 10 ppm in [6] and in [7] was above 50% each time.

Consider `CC(NC(=O)c1cc(C#N)cc(C(F)(F)F)c1)c1ncnn1-c1ncccn1` (stereo not shown) [Example 57, 3-Cyano-N-[1-(2-pyrimidin-2-yl-1,2,4-triazol-3-yl)ethyl]-5-(trifluoromethyl)benzamide], for which the pest or weed control at 10 ppm in assay [6] and in [7] was above 50% throughout.

`C#CCN(C(=O)c1cc(C#N)cc(C(F)(F)F)c1)C(C)c1ncnn1-c1ncccn1` (stereo not shown) [Example 58, 3-Cyano-N-prop-2-ynyl-N-[1-(2-pyrimidin-2-yl-1,2,4-triazol-3-yl)ethyl]-5-(trifluoromethyl)benzamide]: the pest or weed control at 10 ppm in assay [6] and in assay [7] was above 50% throughout. Moreover, the pest or weed control at 20 ppm in assay [8] is above 50%.

With `CC(c1ncnn1-c1ncccn1)N(CC1CC1)C(=O)c1cc(Br)cc(C(F)(F)F)c1` (stereo not shown) [Example 62, 3-Bromo-N-(cyclopropylmethyl)-N-[1-(2-pyrimidin-2-yl-1,2,4-triazol-3-yl)ethyl]-5-(trifluoromethyl)benzamide], the pest or weed control at 10 ppm in [7] was above 50%. In addition, the pest or weed control at 20 ppm in assay [8] is above 50%.

`C[C@@H](c1ncnn1-c1ncc(F)cn1)N(CC1CC1)C(=O)c1cc(C(F)(F)F)cc(C(F)(F)F)c1` [Example 64, N-(Cyclopropylmethyl)-N-[(1S)-1-[2-(5-fluoropyrimidin-2-yl)-1,2,4-triazol-3-yl]ethyl]-3,5-bis(trifluoromethyl)benzamide]: the pest or weed control at 10 ppm in [6] and in assay [7] was above 50% in each case.

`C[C@H](NC(=O)c1cc(C(F)(F)F)cc(C(F)(F)F)c1)c1ncnn1-c1ncccn1` [Example 66, N-[(1S)-1-(2-Pyrimidin-2-yl-1,2,4-triazol-3-yl)ethyl]-3,5-bis(trifluoromethyl)benzamide]: the pest or weed control at 10 ppm in assay [6] and in [7] was above 50% each time.

As for `CC(c1ncnn1-c1ncccn1)N(C)C(=O)c1cc(C(N)=S)cc(C(F)(F)F)c1` (stereo not shown) [Example 72, 3-Carbamothioyl-N-methyl-N-[1-(2-pyrimidin-2-yl-1,2,4-triazol-3-yl)ethyl]-5-(trifluoromethyl)benzamide], the pest or weed control at 10 ppm in assay [6] and in [7] was above 50% in each case.

On to `CCOC(OCC)c1nc(C(C)NC(=O)c2cc(C(F)(F)F)cc(C(F)(F)F)c2)n(-c2ncccn2)n1` (stereo not shown) [Example 73, N-[1-[5-(Diethoxymethyl)-2-pyrimidin-2-yl-1,2,4-triazol-3-yl]ethyl]-3,5-bis(trifluoromethyl)benzamide], for which the pest or weed control at 10 ppm in [6] is above 50%. For the same compound, the pest or weed control at 20 ppm in assay [8] is above 50%.

For `COC(=O)c1nc(C(C)NC(=O)c2cc(C(F)(F)F)cc(C(F)(F)F)c2)n(-c2ncccn2)n1` (stereo not shown) [Example 74, Methyl 5-[1-[[3,5-bis(trifluoromethyl)benzoyl]amino]ethyl]-1-pyrimidin-2-yl-1,2,4-triazole-3-carboxylate], in assay [8], the pest or weed control at 20 ppm was above 50%.
